Test results: ChEMBL document CHEMBL4706535, “The development of Coronavirus 3C-Like protease (3CL) inhibitors from 2010 to 2020” (Eur J Med Chem, 2020)

Tested on: SARS-CoV-2
Assay: microbe, parasite or virus in culture
Details: Severe acute respiratory syndrome coronavirus 2, nCoV-2019 BetaCoV/Wuhan/WIV04/2019, Vero C1008

Q: For `O=C[C@H](C[C@@H]1CCNC1=O)NC(=O)[C@H](Cc1cccc(F)c1)NC(=O)c1cc2ccccc2[nH]1`, which EC50 is on record?
A: 720 nM
